According to US6376426B1, “Herbicidal 3-(heterocycl-1-yl)-uracils” (BASF Aktiengesellschaft, priority 1999, dated 2002):

Experiments:
Type in all cases: in vivo
[1] = test system: Triticum aestivum; test: Post-emergence herbicidal test, TRZAW; set-up: key to herbicidal effect (0-9 scale) TRZAW: A rating 0 indicates growth as untreated control; a rating 9 indicates death; details: for herbicidal effect (0-9 scale) TRZAW: POST, 21 days after spraying
Method: (§1) To evaluate their herbicidal activity, compounds according to the invention are tested using a representative range of plants:
(§2) […] After spraying, the plants are placed on greenhouse benches and are cared for in the usual manner, commensurate with conventional greenhouse practices.
(§3) The herbicidal effects of the test compounds are assessed visually twenty-one days after spraying the foliage and the soil and are recorded on a 0-9 scale. A rating 0 indicates growth as untreated control, a rating 9 indicates death. An increase of 1 unit on the linear scale approximates to a 10% increase in the level of effect.

[2] = test system: Cyperus; test: Pre-emergence herbicidal test, Cyperus; details: 100 g/ha
Method: (§4) The pre-emergence tests involve spraying a liquid formulation of the compound onto the soil in which the seeds of the plant species mentioned above has recently been sown.
(§5) The soil used in the tests is a prepared horticultural loam. The formulations used in the tests are prepared from solutions of the test compounds in acetone containing 0.4% by weight of an alkylphenol/ethylene oxide condensate available under the trade mark TRITON X-155. […] In these tests untreated sown soil are used as controls.
as §3

[3] = test system: representative range of plants; test: Pre-emergence herbicidal test, summary over the plants tested; details: 400 g/ha
Method: as §1, §4, §5, §3

[4] = test system: Ipomoea hederacea; test: Post-emergence herbicidal test, IPOHE; set-up: key to herbicidal effect (0-9 scale) IPOHE / herbicidal rating IPOHE: A rating 0 indicates growth as untreated control; a rating 9 indicates death; details: POST, 21 days after spraying
Method: as §1, §2, §3

[5] = test system: Ambrosia; test: Pre-emergence herbicidal test, Ambrosia; details: 100 g/ha
Method: as §4, §5, §3

[6] = test system: Setaria viridis; test: Pre-emergence herbicidal test, SETVI; set-up: key to herbicidal effect (0-9 scale) SETVI / herbicidal rating SETVI: A rating 0 indicates growth as untreated control; a rating 9 indicates death; details: for herbicidal effect (0-9 scale) SETVI: PRE, 21 days after spraying
Method: as §1, §4, §5, §3

[7] = test system: Setaria viridis; test: Post-emergence herbicidal test, SETVI; set-up: key to herbicidal effect (0-9 scale) SETVI / herbicidal rating SETVI: A rating 0 indicates growth as untreated control; a rating 9 indicates death; details: for herbicidal effect (0-9 scale) SETVI: POST, 21 days after spraying
Method: as §1, §2, §3

[8] = test system: Ipomoea hederacea; test: Pre-emergence herbicidal test, IPOHE; set-up: key: A rating 0 indicates growth as untreated control; a rating 9 indicates death; details: 21 days after spraying
Method: as §1, §4, §5, §3

[9] = test system: representative range of plants; test: Post-emergence herbicidal test, summary over the plants tested
Method: as §1, §2, §3

[10] = test system: Echinochloa crus-galli; test: Post-emergence herbicidal test, ECHCG; details: 21 days after spraying
Method: as §1, §2, §3

[11] = test system: Galium aparine; test: Pre-emergence herbicidal test, GALAP; details: PRE, 21 days after spraying
Method: as §1, §4, §5, §3

[12] = test system: Matricaria inodora; test: Post-emergence herbicidal test, MATIN; set-up: key to herbicidal effect (0-9 scale) MATIN / herbicidal rating MATIN: A rating 0 indicates growth as untreated control; a rating 9 indicates death; details: POST, 21 days after spraying
Method: as §1, §2, §3

[13] = test system: Stellaria media; test: Post-emergence herbicidal test, STEME; set-up: key to herbicidal effect (0-9 scale) STEME / herbicidal rating STEME: A rating 0 indicates growth as untreated control; a rating 9 indicates death; details: POST, 21 days after spraying
Method: as §1, §2, §3

[14] = test system: representative range of plants; test: Herbicidal activity, pre- and post-emergence, overall; details: both in pre- and post-emergence
Method: as §1, §4
The soil used in the tests is a prepared horticultural loam. The formulations used in the tests are prepared from solutions of the test compounds in acetone containing 0.4% by weight of an alkylphenol/ethylene oxide condensate available under the trade mark TRITON X-155. These acetone solutions are diluted with water and the resulting formulations applied at dosage levels corresponding to 1000 g and 250 g/ha of active material per hectare in a volume equivalent to 900 litres per hectare. In these tests untreated sown soil are used as controls.
These acetone solutions are diluted with water and the resulting formulations applied at dosage levels equivalent to about 1000, 800, 400, 250 or 100 g/ha per hectare of test compound per pot. After spraying, the plants are placed on greenhouse benches and are cared for in the usual manner, commensurate with conventional greenhouse practices.
as §3

[15] = test system: Triticum aestivum; test: Pre-emergence herbicidal test, TRZAW; details: 21 days after spraying
Method: as §1, §4, §5, §3

[16] = test system: Stellaria media; test: Pre-emergence herbicidal test, STEME; set-up: key to herbicidal effect (0-9 scale) STEME / herbicidal rating STEME: A rating 0 indicates growth as untreated control; a rating 9 indicates death; details: PRE, 21 days after spraying
Method: as §1, §4, §5, §3

[17] = test system: Zea mays; test: Post-emergence herbicidal test, ZEAMX; details: 21 days after spraying
Method: as §1, §2, §3

[18] = test system: Alopecurus myosuroides; test: Pre-emergence herbicidal test, ALOMY; details: PRE, 21 days after spraying
Method: as §1, §4, §5, §3

[19] = test system: Abutilon theophrasti; test: Pre-emergence herbicidal test, ABUTH; set-up: key to herbicidal effect (0-9 scale) ABUTH / herbicidal rating ABUTH: A rating 0 indicates growth as untreated control; a rating 9 indicates death; details: for herbicidal effect (0-9 scale) ABUTH: PRE, 21 days after spraying
Method: as §1, §4, §5, §3

[20] = test system: Echinochloa crus-galli; test: Pre-emergence herbicidal test, ECHCG; details: 21 days after spraying
Method: as §1, §4, §5, §3

[21] = test system: Alopecurus myosuroides; test: Post-emergence herbicidal test, ALOMY; details: 21 days after spraying
Method: as §1, §2, §3

[22] = test system: Zea mays; test: Pre-emergence herbicidal test, ZEAMX; set-up: key to herbicidal effect (0-9 scale) ZEAMX / herbicidal rating ZEAMX: A rating 0 indicates growth as untreated control; a rating 9 indicates death; details: for herbicidal effect (0-9 scale) ZEAMX: PRE, 21 days after spraying
Method: as §1, §4, §5, §3

[23] = test system: Abutilon theophrasti; test: Post-emergence herbicidal test, ABUTH; set-up: key to herbicidal effect (0-9 scale) ABUTH / herbicidal rating ABUTH: A rating 0 indicates growth as untreated control; a rating 9 indicates death; details: POST, 21 days after spraying
Method: as §1, §2, §3

[24] = test system: Galium aparine; test: Post-emergence herbicidal test, GALAP; set-up: key to herbicidal effect (0-9 scale) GALAP / herbicidal rating GALAP: A rating 0 indicates growth as untreated control; a rating 9 indicates death; details: for herbicidal effect (0-9 scale) GALAP: POST, 21 days after spraying
Method: as §1, §2, §3

[25] = test system: Matricaria inodora; test: Pre-emergence herbicidal test, MATIN; set-up: key to herbicidal effect (0-9 scale) MATIN / herbicidal rating MATIN: A rating 0 indicates growth as untreated control; a rating 9 indicates death; details: for herbicidal effect (0-9 scale) MATIN: PRE, 21 days after spraying
Method: as §1, §4, §5, §3

Cn1c(C(F)(F)F)cc(=O)n(-n2ncc3cc([N+](=O)[O-])ccc32)c1=O [Example 7]
herbicidal effect (0-9 scale) TRZAW ([1]; 25 g/ha): 0
herbicidal effect (0-9 scale) TRZAW ([1]; 100 g/ha): 1
herbicidal effect (0-9 scale) TRZAW ([1]; 400 g/ha): 3
wheat tolerance ([1]; post-emergence, 100 g/ha): good wheat tolerance
control of Cyperus [2]: good control
control of the weeds [3]: all of the weeds except Alopecurus were well controlled
herbicidal effect (0-9 scale) IPOHE ([4]; 25 g/ha): 9
herbicidal effect (0-9 scale) IPOHE ([4]; 100 g/ha): 9
herbicidal effect (0-9 scale) IPOHE ([4]; 400 g/ha): 9
control of Ambrosia [5]: good control
herbicidal effect (0-9 scale) SETVI ([6]; 100 g/ha): 8
herbicidal effect (0-9 scale) SETVI ([6]; 400 g/ha): 9
control of Setaria ([6]; pre-emergence, 100 g/ha): good control
herbicidal effect (0-9 scale) SETVI ([7]; 25 g/ha): 8
herbicidal effect (0-9 scale) SETVI ([7]; 100 g/ha): 9
herbicidal effect (0-9 scale) SETVI ([7]; 400 g/ha): 9
control of Setaria ([7]; post-emergence, 100 g/ha): excellent control
herbicidal effect (0-9 scale) IPOHE ([8]; 100 g/ha): 7
herbicidal effect (0-9 scale) IPOHE ([8]; 400 g/ha): 9
control of all of the broadleaf weeds ([9]; 100 g/ha): excellent control
control of the weeds ([9]; dose not given): good cross spectrum control on both broadleaf weeds and grasses except Alopecurus
crop tolerance ([9]; dose not given): no observable crop tolerance
herbicidal effect (0-9 scale) ECHCG ([10]; 25 g/ha): 2
herbicidal effect (0-9 scale) ECHCG ([10]; 100 g/ha): 7
herbicidal effect (0-9 scale) ECHCG ([10]; 400 g/ha): 8
herbicidal effect (0-9 scale) GALAP ([11]; 100 g/ha): 4
herbicidal effect (0-9 scale) GALAP ([11]; 400 g/ha): 8
herbicidal effect (0-9 scale) MATIN ([12]; 25 g/ha): 7
herbicidal effect (0-9 scale) MATIN ([12]; 100 g/ha): 8
herbicidal effect (0-9 scale) MATIN ([12]; 400 g/ha): 9
herbicidal effect (0-9 scale) STEME ([13]; 25 g/ha): 4
herbicidal effect (0-9 scale) STEME ([13]; 100 g/ha): 8
herbicidal effect (0-9 scale) STEME ([13]; 400 g/ha): 9
herbicidal performance [14]: good performance
herbicidal effect (0-9 scale) TRZAW ([15]; 100 g/ha): 1
herbicidal effect (0-9 scale) TRZAW ([15]; 400 g/ha): 4
herbicidal effect (0-9 scale) STEME ([16]; 100 g/ha): 5
herbicidal effect (0-9 scale) STEME ([16]; 400 g/ha): 9
herbicidal effect (0-9 scale) ZEAMX ([17]; 25 g/ha): 2
herbicidal effect (0-9 scale) ZEAMX ([17]; 100 g/ha): 3
herbicidal effect (0-9 scale) ZEAMX ([17]; 400 g/ha): 5
herbicidal effect (0-9 scale) ALOMY ([18]; 100 g/ha): 3
herbicidal effect (0-9 scale) ALOMY ([18]; 400 g/ha): 6
herbicidal effect (0-9 scale) ABUTH ([19]; 100 g/ha): 9
herbicidal effect (0-9 scale) ABUTH ([19]; 400 g/ha): 9
control of Abutilon ([19]; pre-emergence, 100 g/ha): good control
herbicidal effect (0-9 scale) ECHCG ([20]; 100 g/ha): 7
herbicidal effect (0-9 scale) ECHCG ([20]; 400 g/ha): 8
herbicidal effect (0-9 scale) ALOMY ([21]; 25 g/ha): 2
herbicidal effect (0-9 scale) ALOMY ([21]; 100 g/ha): 4
herbicidal effect (0-9 scale) ALOMY ([21]; 400 g/ha): 6
herbicidal effect (0-9 scale) ZEAMX ([22]; 100 g/ha): 0
herbicidal effect (0-9 scale) ZEAMX ([22]; 400 g/ha): 4
selectivity in maize ([22]; pre-emergence, 100 g/ha): surprisingly good selectivity
herbicidal effect (0-9 scale) ABUTH ([23]; 25 g/ha): 8
herbicidal effect (0-9 scale) ABUTH ([23]; 100 g/ha): 9
herbicidal effect (0-9 scale) ABUTH ([23]; 400 g/ha): 9
herbicidal effect (0-9 scale) GALAP ([24]; 25 g/ha): 6
herbicidal effect (0-9 scale) GALAP ([24]; 100 g/ha): 8
herbicidal effect (0-9 scale) GALAP ([24]; 400 g/ha): 9
control of Galium aparine ([24]; post-emergence, 100 g/ha): excellent control
herbicidal effect (0-9 scale) MATIN ([25]; 100 g/ha): 9
herbicidal effect (0-9 scale) MATIN ([25]; 400 g/ha): 9
control of Matricaria ([25]; pre-emergence, 100 g/ha): good control
